Measurements taken from US20250186503A1, “METHODS AND COMBINATIONS FOR TREATMENT AND T CELL MODULATION” (Juno Therapeutics, Inc., priority 2018, published 2025).

Experiments:
MM1.S cells = assay: Serial restimulation of anti-BCMA CAR+ T cells with irradiated MM1.S target cells; type: cell-based, human; parameters: CAR-T expansion, each of six donors: dose or concentration left out as unconfirmed
Protocol: Anti-BCMA CAR+ T cells generated as described above were plated in triplicate at […] cells/well on 96-well plates.
Every 3-4 days (start of each new round), CAR T cells were counted. […] 8 rounds of stimulation were carried out during a 31 day culture period. For some rounds, at re-plating, cells were assessed for phenotypic markers via flow cytometry.
Culture conditions were reset every 3-4 days. Replating was maintained for 28 days or until the cell count was <50,000 cells. Experiments were performed in triplicate in 3 donors. […] Activation of CAR-T cells was measured on cells collected at days 4, 7, and 14 by flow cytometry for CD25.

anti-CD19 CAR+ T cells = assay: IL-10 in supernatants of anti-CD19 CAR+ T cells incubated with K562-CD19 cells; type: cell-based, human; conditions: E:T 3:1 or 9:1, 24 hours
anti-BCMA CAR+ T cells = assay: T cell markers on anti-BCMA CAR+ T cells stimulated with BCMA-conjugated beads; type: cell-based, human
Protocol: Approximately 1.5×10^6 CAR+ T cells were added to wells of a 12-well plate and were incubated with beads from a 200 μg/ml BCMA-conjugated bead composition at a ratio of CAR+ T cell to BCMA-conjugated bead of 1:0.3, 1:1 or 1:3 (approximately 0.5×10^6, 1.5, 10^6, and 4.5×10^6 beads per well, respectively). As controls, 5 μg/mL anti-CD3 antibody was coated to wells (sub-optimal concentration for stimulation) or cells were seeded in the absence of any agent (no stimulation control). […] The cells were incubated for four days and then analyzed by flow cytometry for surface expression of CD4, CD8, Tim3, PD-1, CD25 and CD69.
In a further experiment, anti-BCMA CAR-T cell compositions produced substantially as described in Example 1 were plated in 96-well plates at a density of 5×10^5 cells per well. The tested CAR-T cell compositions contained, on average, approximately 45% anti-BCMA CAR+ cells at plating. Cells from each composition were incubated for 18 hours in the presence of beads from a 5 μg/ml, 50 μg/ml, or 200 μg/ml BCMA-conjugated bead composition at a ratio of 1:1 T cells to beads. As a control, cells were incubated with anti-CD3/anti-CD28 antibody-conjugated beads (positive control) or no added agent (negative control). […] Following the incubation, the cells were treated with reagents that allowed for extracellular and intracellular antibody staining by flow cytometry for the transcription factors Blimp1, EOMES, GATA-3, ikaros, helios, and Tbet and markers CD25, CD31, and PD-1.

anti-BCMA CAR T cells = assay: Cytokine expression of anti-BCMA CAR T cells stimulated with BCMA-conjugated beads; type: cell-based, human; conditions: 24 hours
Protocol: Cryofrozen anti-BCMA CAR T cells, produced substantially as described in Example 1 and formulated at a 1:1 ratio of CD4+ and CD8+ T cells, were thawed.
Twenty four hours after addition of BCMA-conjugated beads, the presence of TNF-α, IFNγ, and IL-2 in culture supernatants was assessed.
In a further exemplary study, two different anti-BCMA CAR T cell compositions were generated from different donors, each containing T cells expressing the same anti-BCMA CAR. The cells were thawed and incubated with beads (diameter about 4.5 pm) from a 5 μg/mL or 200 μg/mL BCMA-conjugated bead composition generated as described in Example 1. […] Twenty four hours after addition of BCMA-conjugated beads, IL-2 production by the anti-BCMA CAR+ T cells was assessed in culture supernatants.
The cells were gated on transduced, live CD3+ cells, and assessed by flow cytometry for intracellular cytokine accumulation of IFNγ and TNFα in CD4+ and CD8+ cells.

[1] = system: PD-L1-mediated inhibition; assay: Cytokine production with BCMA/PD-L1 conjugated beads; type: cell-based, human; conditions: 1 μM, 24 hours, vs vehicle
Protocol: In another study, to explore whether the lenalidomide-induced potentiation of CAR T activation and cytokine production could override PD-L1-mediated inhibition, cells were cultured in the presence of BCMA beads generated as described in Example 9, with or without additional conjugation of human recombinant PD-L1-Fc. […] Cytokine production was measured in the supernatant.

[2] = system: BCMA-expressing RPMI-8226 MM cells; assay: Rescue of chronically stimulated anti-BCMA CAR T cells rechallenged with RPMI-8226 MM cells; type: cell-based; conditions: 1 nm or 10 nM during rechallenge
Protocol: Studies were undertaken to determine whether Compound 2 rescued anti-BCMA CAR T cell function following chronic stimulation. To directly stimulate via CAR engagement to induce chronic stimulation of cells, anti-BCMA CAR T cells were stimulated with BCMA conjugated beads (diameter about 4.5 pm from a 50 μg/ml BCMA-conjugated bead composition, generated as described in Example 9) at a ratio of T cells to beads of 1:1. The cells were then incubated at 37° C., 5% CO2 for 7 days.
Cultures were incubated at 37° C., 5% CO2, and images were taken every 2 hours over 5-7 days with an Essen IncuCyte Zoom live-cell analysis system to track NucLightRed-positive target cells.

[3] = system: Raji lymphoma tumor cells; assay: Raji-ffluc tumor xenograft model, CAR-expressing T cells in combination with Compound 1; type: in vivo, NSG mice
Protocol: The anti-tumor efficacy of CAR-expressing T cells in combination with 3-(5-amino-2-methyl-4-oxo-4H-quinazolin-3-yl)-piperidine-2,6-dione (Compound 1) was assessed by monitoring tumors in a tumor xenograft model. Anti-CD19 CAR-expressing T cell compositions, containing CD4+ and CD8+ T cells combined at a 1:1 ratio, were generated substantially as described in Example 14. T cell compositions were generated from three different donors.
NOD.Cg.Prkdc^scidIL2rg^tmlWjl/SzJ (NSG) mice were injected intravenously (i.v.) with 0.5×10^6 Raji lymphoma tumor cells (an immortalized human B lymphocyte tumor cell line that expresses CD19) that were transfected with firefly luciferase (Raji-ffluc). Tumor engraftment was allowed to occur for 6 days and verified using bioluminescence imaging. On Day 7, mice either received no treatment, or a single intravenous (i.v.) injection of anti-CD19 CAR-expressing cells at a low dose (0.5×10^6 cells) or a high dose (1.0×10^6 cells). […] Tumor burden was assessed by bioluminescence every 10 days. For bioluminescence imaging, mice received intraperitoneal (i.p.) injections of luciferin substrate (CaliperLife Sciences, Hopkinton, MA) resuspended in PBS (15 μg/g body weight). The average radiance (p/s/cm^2/sr) was determined. Survival of mice treated as described above were assessed and compared until day 100 post-infusion of CAR-expressing T cells.

In the case of Nc1cccc2c1CN(C1CCC(=O)NC1=O)C2=O (stereo not drawn) [lenalidomide, 3-(4-amino-1-oxo-1,3-dihydro-2H-isoindol-2-yl)piperidine-2,6-dione], the “projected cell counts over 28 days” value (MM1.S cells; 0.1 μM, 3 donors, relative to controls) is reported as “increased”, the “CAR T CD25 expression” value (MM1.S cells; 0.1 μM, repeated stimulation) is reported as “significant increase” and the “IL-2, IFN-γ and TNF-α production in the media” value (MM1.S cells; 0.1 μM, repeated stimulation) is reported as “significant increase”. For the same compound, the “expansion of anti-BCMA CAR T cells by day 14” value (MM1.S cells; 0.01-10 μM, E:T 1:2, all concentrations) was “increased expansion”, the “expansion of cells expressing two different human anti-BCMA CARs” value (MM1.S cells; beginning between day 21 and day 28) was “increase expansion” and the “CAR-T expansion, each of six donors” value (MM1.S cells; concentration of lenalidomide) was “increase or no change”. For the same compound, the “secretion and/or accumulation of IL-10 in supernatants” value (anti-CD19 CAR+ T cells) was “dose-dependently increased”, the “expression level of Ikaros” value (anti-BCMA CAR+ T cells; 0.5 μM or 5 μM, 18 hours, all conditions) was “decreased” and the “proliferative capacity of T cells (CTV dye)” value (anti-BCMA CAR+ T cells; 5 μM, 200 μg BCMA beads 1:1, three days) was “increased”. The “surface expression of CD25 in CD4+ and CD8+ T cells” value (anti-BCMA CAR+ T cells; BCMA-conjugated beads or anti-CD3 stimulation) was “further increased”, the “intracellular IFNγ and TNFα cytokine production” value (anti-BCMA CAR T cells; 0.1 μM or 1 μM, 5, 50 or 200 μg/mL BCMA beads) was “increased” and the “IL-2 production in culture supernatants” value (anti-BCMA CAR T cells; 1 μM or 5 μM, 5 or 200 μg/mL BCMA beads, two donors) was “increased”. For the same compound, the “BCMA-induced CAR+ T cell cytokine production (TNF-α, IFNγ, IL-2 in supernatants)” value (anti-BCMA CAR T cells; 5 μM, 5 or 50 μg/mL BCMA beads) was “increased” and the “secreted cytokine levels in the presence of PD-L1” value [1] was “potentiated”.

With O=C1CC[C@H](N2Cc3c(OCc4ccc(CN5CCOCC5)cc4)cccc3C2=O)C(=O)N1 [Compound 2, (S)-3-[4-(4-morpholin-4-ylmethyl-benzyloxy)-1-oxo-1,3-dihydro-isoindol-2-yl]-piperidine-2,6-dione] the “cytolytic activity of chronically stimulated anti-BCMA CAR T cells” value ([2]; 0.3:1 E:T) was “improvement in cytolytic activity” and the “production of IFN-gamma, IL-2 or TNF-alpha” value ([2]; 24 hours) was “increased production”.

In the case of Cc1nc2cccc(N)c2c(=O)n1C1CCC(=O)NC1=O (stereo not drawn) [Compound 1, 3-(5-amino-2-methyl-4-oxo-4H-quinazolin-3-yl)-piperidine-2,6-dione], the “tumor burden compared to CAR-expressing cells alone” value ([3]; 0.3 mg/kg i.p. once a day, Concurrent and Delayed groups) is reported as “reduce tumor burden” and the “percent survival compared to anti-CD19 CAR-T cells only” value ([3]; delayed or concurrent, low and high CAR-T dose) is reported as “greater percent survival”.
